Measured values published in US11834663B2, “Fibrotic treatment” (Monash University, priority 2015, dated 2023).

Columns and labels:
[1] = system: livers of WT mice on high salt diet; assay: High salt diet-induced liver fibrosis reversal model (Masson's trichrome); type: in vivo, mouse; conditions: WT mice on 5% NaCl diet 8 weeks, FIG. 28
Protocol: Male C57BL/6J wild type (WT) mice aged approximately 4 to 6 months weighing 30-40 grams were obtained from Monash Animal Research Laboratory. Animals were housed in the Animal House in the Department of Pharmacology, Monash University, in standard cages where they were initially maintained on a normal diet. The housing was maintained at roughly 21° C.±5° C. with mice exposed to a 12 hour light/dark cycle, and access to food and water ad libitum. Experimental procedures undertaken were approved and certified by the School of Biomedical Sciences (SOBS) Animal Ethics Committee of Monash University (2013/118).
A high-salt diet (5% salt) model is a clinically relevant and disease-reversal model which can replicate the high salt intake by humans which is currently a growing problem in the developed countries. High salt intake induces changes in the cardiovascular system and induces remodelling and fibrosis in the heart and liver. […]
Quantification of liver fibrosis was performed using images captured with the Aperio scanner (Monash Histology Platform, Monash University), with ×5 magnification. […] Percentage of interstitial and perivascular collagen was analysed and quantified using ImageJ 1.48 software (Java, NIH), and the percentage from 5 random fields of view were averaged for final percentage of collagen for that particular animal. […]

[2] = system: Ang II-infused WT mice; assay: Angiotensin II infusion prevention model: systolic blood pressure (tail-cuff); type: in vivo, mouse; conditions: adult WT mice, Ang II 800 ng/kg/min s.c. + HFI-419 500 ng/kg/min, 4 weeks; FIG. 1
Protocol: There are 8 different sets of in vivo experiments in this study: • A) Phenotypic characterisation of the heart and blood vessels in global IRAP knockout mice and their WT controls treated for 4 weeks with Angiotensin (Ang) II (800 ng/kg/min; s.c.) where mouse hearts and blood vessels were compared to tissue obtained from young WT and IRAP^−/− mice treated with saline. • B) Prevention of Ang II-induced changes in the cardiovascular system following IRAP inhibitor treatment. […]
All mice which underwent surgery were anaesthetized with Isoflurane (Isorrane) (5% induction and 2.5% maintenance) and an incision made in the midscapular region through which osmotic minipumps (Alzet model 2004, Alza Corp) were inserted for subcutaneous drug administration. […] Systolic blood pressure (SBP) was measured fortnightly using non-invasive tail-cuff plethysmography apparatus (MC4000 Blood Pressure Analysis System, Hatteras Instrument Inc) before drug treatment (week 0), at week 2 of treatment and end of treatment (week 4). At the end of drug treatment, body weight of mice was recorded. […]

SMILES: CCOC(=O)C1=C(NC(C)=O)Oc2cc(O)ccc2C1c1cccnc1 (stereo not drawn) [HFI-419]
- HSD-induced collagen deposition in liver (Masson's trichrome) ([1]; HFI-419 0.72 mg/kg/d s.c. for last 4 weeks): significantly reversed HSD-induced collagen deposition to the same level seen in mice fed a normal chow diet
- indicators of steatosis in the liver ([1]; HFI-419 for last 4 weeks): markedly reduced
- Ang II-induced increase in systolic blood pressure [2]: attenuates
